Results taken from patent US20230218581A1, “COMPOSITIONS AND METHODS COMPRISING DENDRIMERS AND THERAPEUTIC AGENTS” (The Johns Hopkins University, priority 2020, published 2023).

Experiments:
[1] = tested on: mouse primary glia; experiment: exosome release from glial cells, nanoparticle tracking analysis; type: cell-based; details: glia activated by FBS, 0.03-100 μM, two hours after treatment
[2] = tested on: human immunodeficiency virus (HIV); details: cited from earlier work
[3] = molecular target: alkaline phosphatase; experiment: selectivity: alkaline phosphatase inhibition; type: biochemical
[4] = molecular target: T1, P38d/MAPK13 (Homo sapiens, UniProt O15264); experiment: p38 MAP kinase profiling, P38d; type: biochemical; details: DPTIP tested at 0.001-100 μM
T1 sequence (O15264 1-365): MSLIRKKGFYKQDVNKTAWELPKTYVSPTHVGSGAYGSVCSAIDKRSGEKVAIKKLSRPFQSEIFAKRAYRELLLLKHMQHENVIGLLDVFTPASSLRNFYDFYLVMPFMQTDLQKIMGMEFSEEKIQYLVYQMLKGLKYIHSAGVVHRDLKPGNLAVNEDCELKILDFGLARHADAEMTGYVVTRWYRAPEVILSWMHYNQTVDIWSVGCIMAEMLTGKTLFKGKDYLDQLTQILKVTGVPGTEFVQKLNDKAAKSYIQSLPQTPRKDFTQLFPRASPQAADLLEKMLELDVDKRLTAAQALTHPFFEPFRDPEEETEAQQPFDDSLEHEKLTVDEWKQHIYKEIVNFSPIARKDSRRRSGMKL

[5] = tested on: synaptic proteins (PSD-95, NR2A, GluR1); experiment: synaptic protein levels after nSMase2 inhibitor treatment; type: in vivo; details: 10 mg/kg daily; intraperitoneal
[6] = tested on: horizontal brain slices; experiment: voltage traces from brain slices on multielectrode array; details: pre and post 10 μM treatment
[7] = Phase I metabolic stability, mouse liver microsomes; type: in vitro ADME; details: at 1 hr
Protocol: (§1) The in vitro and in vivo pharmacokinetic properties of DPTIP were evaluated.
(§2) ; FIG. 6C) administration in mice were not optimal (F<5%, AUCbrain/plasma ratio <0.2).

[8] = Phase I metabolic stability, human liver microsomes; type: in vitro ADME; details: at 1 hr
Protocol: as §1, §2

[9] = phase II glucuronidation stability; type: in vitro ADME; details: at 1 hr
Text: as §2

[10] = DPTIP pharmacokinetics in mice; type: in vivo
Protocol: as §1, §2

[11] = DPTIP brain penetration in AD mice (3xTg); type: in vivo; details: mouse, brain/plasma, ip; AD mice (3×Tg), 10 mg/kg i.p.
Text: as §2

[12] = 759 bioassays; cited from earlier work
[13] = molecular target: P38a/MAPK14 (Homo sapiens, UniProt Q16539); experiment: p38 MAP kinase profiling, P38a; details: DPTIP tested at 0.001-100 μM
[14] = molecular target: P38b/MAPK11 (Homo sapiens, UniProt Q15759); experiment: p38 MAP kinase profiling, P38b; details: DPTIP tested at 0.001-100 μM
[15] = molecular target: T2, P38g (Homo sapiens, UniProt P53778); experiment: p38 MAP kinase profiling, P38g; details: DPTIP tested at 0.001-100 μM
T2 sequence (P53778 1-367): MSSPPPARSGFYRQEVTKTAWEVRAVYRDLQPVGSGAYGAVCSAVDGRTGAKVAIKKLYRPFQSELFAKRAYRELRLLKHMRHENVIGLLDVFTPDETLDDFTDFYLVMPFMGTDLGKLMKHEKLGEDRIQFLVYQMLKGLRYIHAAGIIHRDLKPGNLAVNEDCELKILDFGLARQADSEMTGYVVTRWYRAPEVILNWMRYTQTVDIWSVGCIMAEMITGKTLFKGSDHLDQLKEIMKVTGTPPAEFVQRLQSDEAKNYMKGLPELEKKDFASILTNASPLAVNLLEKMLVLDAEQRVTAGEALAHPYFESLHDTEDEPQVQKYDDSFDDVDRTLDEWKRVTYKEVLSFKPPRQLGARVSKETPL

[16] = molecular target: T3, acid sphingomyelinase (Homo sapiens, UniProt P17405); experiment: selectivity: acid sphingomyelinase inhibition
T3 sequence (P17405 47-631): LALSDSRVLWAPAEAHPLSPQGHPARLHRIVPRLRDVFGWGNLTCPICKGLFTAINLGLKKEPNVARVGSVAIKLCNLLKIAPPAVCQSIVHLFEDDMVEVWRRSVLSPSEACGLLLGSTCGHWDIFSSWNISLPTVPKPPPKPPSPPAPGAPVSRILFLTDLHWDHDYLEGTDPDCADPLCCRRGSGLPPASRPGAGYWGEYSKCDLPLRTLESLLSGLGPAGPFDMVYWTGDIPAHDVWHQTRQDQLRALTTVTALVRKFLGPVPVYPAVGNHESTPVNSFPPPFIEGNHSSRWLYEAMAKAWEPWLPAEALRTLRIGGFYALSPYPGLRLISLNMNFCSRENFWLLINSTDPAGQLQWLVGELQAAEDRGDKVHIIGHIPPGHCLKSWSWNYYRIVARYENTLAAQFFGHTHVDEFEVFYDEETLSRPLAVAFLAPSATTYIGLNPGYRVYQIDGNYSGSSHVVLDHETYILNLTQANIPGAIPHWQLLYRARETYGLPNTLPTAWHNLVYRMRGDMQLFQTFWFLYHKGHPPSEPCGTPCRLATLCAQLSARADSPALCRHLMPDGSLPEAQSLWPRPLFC

P38a/MAPK14, sequence (Q16539 whole entry): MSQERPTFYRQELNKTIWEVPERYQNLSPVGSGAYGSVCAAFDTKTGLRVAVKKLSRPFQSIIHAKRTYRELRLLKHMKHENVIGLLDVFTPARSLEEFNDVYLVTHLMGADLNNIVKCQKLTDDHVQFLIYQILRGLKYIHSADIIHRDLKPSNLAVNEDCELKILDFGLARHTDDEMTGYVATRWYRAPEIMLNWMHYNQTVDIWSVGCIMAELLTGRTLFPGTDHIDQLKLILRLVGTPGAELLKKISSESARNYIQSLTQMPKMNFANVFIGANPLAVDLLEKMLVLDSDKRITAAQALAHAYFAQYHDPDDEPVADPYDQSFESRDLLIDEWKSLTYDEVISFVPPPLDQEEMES
P38b/MAPK11, sequence (Q15759 whole entry): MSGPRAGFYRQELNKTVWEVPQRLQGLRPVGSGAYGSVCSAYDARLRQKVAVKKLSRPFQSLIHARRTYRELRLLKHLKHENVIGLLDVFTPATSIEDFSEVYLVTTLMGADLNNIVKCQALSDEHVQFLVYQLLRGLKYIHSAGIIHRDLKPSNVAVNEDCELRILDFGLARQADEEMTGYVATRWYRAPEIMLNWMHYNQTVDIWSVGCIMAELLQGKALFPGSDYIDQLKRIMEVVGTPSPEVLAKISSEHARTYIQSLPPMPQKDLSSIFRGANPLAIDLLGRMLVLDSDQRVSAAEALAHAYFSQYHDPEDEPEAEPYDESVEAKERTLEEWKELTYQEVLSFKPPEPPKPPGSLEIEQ

Structure (SMILES) | exosome release [1] | dendritic cell-mediated infection of healthy CD4+ T lymphocytes [2] | IC50 [3] [µM] | IC50 (M) [4] | effect on PSD95 or NR2A [5] | differences in voltage traces (neuronal function) [6] | % remaining (CYP-dependent oxidation) [7] [%] | % remaining (CYP-dependent oxidation) [8] [%] | % remaining (phase II glucuronidation) [9] [%] | levels of DPTIP post-administration ([10]; 2-he post-administration) | Kp ([10]; mouse, brain/plasma, 10 mg/kg PO, read-out: AUCbrain/plasma ratio) | clearance ([10]; mouse, plasma, oral, 10 mg/kg, read-out: clearance Clapp) [mL/min/kg] | half-life ([10]; mouse, plasma, oral, 10 mg/kg, read-out: plasma half-life t½ (converted)) [min] | bioavailability ([10]; mouse, plasma, 10 mg/kg PO, read-out: oral bioavailability F) [%] | Kp [11] | share of assays with weak activity (μM) [12] [%] | IC50 (M) [13] | IC50 (M) [14] | IC50 (M) [15] | IC50 [16] [µM]
COc1cc(OC)cc(-c2nc(-c3cccs3)c(-c3ccccc3)[nH]2)c1 [des-hydroxyl analog, reference compound] | no effect |  |  |  |  |  |  |  |  |  |  |  |  |  |  |  |  |  |  | 
CCCCCCCCCC(=O)N[C@H](CO)C(=O)NC1=CC2(CO2)C(=O)C=C1 (stereo partly drawn) [spiroepoxide] |  | reduced |  |  |  |  |  |  |  |  |  |  |  |  |  |  |  |  |  | 
COc1cc(-c2nc(-c3cccs3)c(-c3ccccc3)[nH]2)cc(OC)c1O [DPTIP, 2,6-dimethoxy-4-(5-phenyl-4-(thiophen-2-yl)-1H-imidazol-2-yl) phenol] | inhibited exosome release in a dose-dependent manner |  | > 100 | not quantifiable | no significant effect | No significant differences | 100 | 100 | > 50 | undetectable | < 0.2 | 92 | ~30 | < 5 | < 0.2 | < 2.5 | not quantifiable | not quantifiable | not quantifiable | > 100
